From patent publication US20220088040A1, “Use of System XC-Inhibitor for Treating Statin-Induced Myalgia” (Exerkine Corporation, priority 2017, published 2022)

Key:
C2C12 myotubes = test: Glutamate efflux from C2C12 myotubes (Amplex Red glutamic acid assay of culture media); format: cell-based, murine; settings: for effect on glutamate efflux caused by atorvastatin: sulfasalazine 20 μM, cysteamine bitartrate 100 and 300 μM, vitamin E 100 μM, coenzyme Q10 50 μM; for glutamate efflux levels: co-treated with atorvastatin 5 μM and sulfasalazine 20 μM
system Xc- subunit xCT = test: xCT protein content in C2C12 myotubes by chemiluminescent immunoblot; format: cell-based, murine; settings: atorvastatin 5 μM
[1] = system: primary human fibroblasts; test: Glutamate efflux from primary human fibroblasts; format: cell-based; settings: statin (atorvastatin 5 μM) (FIG. 3B)
Sprague Dawley rats = test: Extramyocellular glutamate in rat gastrocnemius muscle by interstitial microdialysis; format: in vivo; settings: 10 days, muscle dialysate (FIG. 6)
primary human myoblasts = settings: co-treatment of statin (atorvastatin 5 μM) with sulfasalazine 20 μM (FIG. 3A)
[2] = 5 μM atorvastatin, combination 100 μM vitamin E + 35 μM coenzyme Q10, N-acetylcysteine 5 mM (FIG. 4)
[3] = 7.5 μM atorvastatin, combination 100 μM vitamin E + 35 μM coenzyme Q10, N-acetylcysteine 5 mM (FIG. 5)

Row | Compound | effect on glutamate efflux caused by atorvastatin (C2C12 myotubes; [2]) | effect on glutamate efflux caused by atorvastatin (C2C12 myotubes; [3]) | further results
1 | NCCS.O=C(O)C(O)C(O)C(=O)O (stereo not shown) [Cysteamine bitartrate] | mitigated | mitigated | 
2 | CC(=O)N[C@@H](CS)C(=O)O [N-acetylcysteine] | substantially increased | substantially increased | 
3 | CC(C)c1c(C(=O)Nc2ccccc2)c(-c2ccccc2)c(-c2ccc(F)cc2)n1CC[C@@H](O)C[C@@H](O)CC(=O)O [atorvastatin] |  |  | elevated xCT protein level (system Xc- subunit xCT; 24 hour time point (FIG. 1)): still present; elevation in xCT abundance (system Xc- subunit xCT; after 12 hours, vs vehicle (FIG. 1)): approximately 2 fold; extracellular glutamate concentrations [1]: no changes; increase in extramyocellular glutamate concentrations compared with the Control group (Sprague Dawley rats; atorvastatin 40 mg/kg/day oral): 21%
4 | O=C(O)c1cc(/N=N/c2ccc(S(=O)(=O)Nc3ccccn3)cc2)ccc1O [sulfasalazine] | inhibited | inhibited | glutamate efflux levels (C2C12 myotubes; 6 hour time point (FIG. 2)): initial increase; glutamate efflux levels (C2C12 myotubes; 12 hour to 24 hour time points (FIG. 2)): declined to baseline levels; glutamate efflux (C2C12 myotubes; sulfasalazine alone 20 μM, throughout the 0-24 h treatment period (FIG. 2)): around those of baseline values; extramyocellular glutamate concentrations, lower than Control (Sprague Dawley rats; atorvastatin 40 mg/kg/day with sulfasalazine 200 mg/kg/day oral): 19%; glutamate efflux / extracellular glutamate levels (primary human myoblasts): blocked this efflux and further reduced extracellular glutamate levels to those below the vehicle control group
5 | COc1c(O)c(C)c(C/C=C(\C)CC/C=C(\C)CC/C=C(\C)CC/C=C(\C)CC/C=C(\C)CC/C=C(\C)CC/C=C(\C)CC/C=C(\C)CC/C=C(\C)CCC=C(C)C)c(O)c1OC [ubiquinol] | mitigated | mitigated | 
6 | vitamin E | mitigated | mitigated | 
